Assay results: patent US12600724B2, “Indole alkaloid and preparation method and use thereof” (NANJING UNIVERSITY OF CHINESE MEDICINE, priority 2022, dated 2026)

tested on: primary DRG neuron; test: Axon growth of primary DRG neurons (immunofluorescence, Neuro J); type: cell-based, C57BL/6J mice; conditions: Mus musculus, 24 hours, multiple of total axon length of a single DRG neuron relative to blank control group
Description: Diabetic peripheral neuropathy involved a sensory neuron first, and a main pathological change was axonal atrophy and degeneration, or even disappearance. […] Therefore, the compounds in the examples were added with the primary DRG neuron to incubate for a certain period of time, then the axon growth of the DRG neuron was detected by immunofluorescence, and an axon length was quantified by Neuro J, so as to evaluate the promotion effect of the compound on the axon growth of the peripheral sensory neuron.
Primary antibodies of mice anti-β-tubulin III used for fluorescent staining were purchased from Sigma Company, cell culture reagents were all purchased from Gibco Company, and DRG neuronal cells were taken from C57BL/6J mice. Specific experimental steps were as follows: fresh DRG of the C57 mice was extracted to digest into a single-cell suspension and then inoculated into a culture plate for adherent culture overnight, with vinblastine as a positive drug, the to-be-detected compounds S1 to S87 ([…]) synthesized in the above examples were given to incubate for 24 hours, then an original culture medium was removed, 4% paraformaldehyde was added into each well to fix for 15 minutes after PBS washing, the mixture was permeabilized with 0.3% TritonX-100 for 5 minutes and sealed at room temperature with 4% BSA for 1 hour, a primary antibody (1:1000) was incubated at 4° C. overnight, a goat anti-mouse fluorescent secondary antibody (1:300) was incubated at room temperature in the dark for 1 hour, and a sealed slide was imaged by a fluorescence microscope (Leica). According to the image, a total axon length of a single DRG neuron was tracked by a Neuro J plug-in in Image J software, and a multiple of the total axon length relative to that of the blank control group was calculated.

| Compound | fold induction at 10 µM |
| --- | --- |
| CC[C@@]12C=C(C(=O)NCC(=O)OCCOCCOCCO)n3c4c(c5ccccc53)CCN(CCC1)[C@H]42 [Compound S25] | 12.3 |
| CC[C@@]12C=C(C(=O)NCC(=O)N[C@@H](C)C(=O)OCCOCCOCCO)n3c4c(c5ccccc53)CCN(CCC1)[C@H]42 [Compound S47] | 11.2 |
| CC[C@@]12C=C(C(=O)OCCC(=O)OCCOCCO)n3c4c(c5ccccc53)CCN(CCC1)[C@H]42 [Compound S56] | 11.3 |
| CC[C@@]12C=C(C(=O)NCC(=O)N[C@H](C(=O)O)C(C)C)n3c4c(c5ccccc53)CCN(CCC1)[C@H]42 [Compound S80] | 11.3 |
| CC[C@@]12C=C(C(=O)N[C@@H](Cc3ccccc3)C(=O)OCCOCCOCCOCCOC)n3c4c(c5ccccc53)CCN(CCC1)[C@H]42 [Compound S14] | 10.5 |
| CC[C@@]12C=C(C(=O)NCCNC(=O)OCCOCCOCCOCCO)n3c4c(c5ccccc53)CCN(CCC1)[C@H]42 [Compound S65] | 11 |
| CC[C@@]12C=C(C(=O)N[C@@H](CS)C(=O)OCCOCCOCCOCCO)n3c4c(c5ccccc53)CCN(CCC1)[C@H]42 [Compound S46] | 10.7 |
| CC[C@@]12C=C(C(=O)NCC(=O)N[C@@H](CC(N)=O)C(=O)O)n3c4c(c5ccccc53)CCN(CCC1)[C@H]42 [Compound S77] | 10.8 |
| CC[C@@]12C=C(C(=O)N[C@H](C(=O)OCCOCCOCCOCCO)C(C)C)n3c4c(c5ccccc53)CCN(CCC1)[C@H]42 [Compound S30] | 12.6 |
| CC[C@@]12C=C(C(=O)N[C@@H](CCC(N)=O)C(=O)OCCOCCOCCOCCO)n3c4c(c5ccccc53)CCN(CCC1)[C@H]42 [Compound S36] | 11.7 |
| CC[C@@]12C=C(C(=O)NCC(=O)N[C@@H](CC(C)C)C(=O)OCCOCCOCCOCCO)n3c4c(c5ccccc53)CCN(CCC1)[C@H]42 [Compound S51] | 9.8 |
| CC[C@@]12C=C(C(=O)N[C@@H](Cc3ccccc3)C(=O)O)n3c4c(c5ccccc53)CCN(CCC1)[C@H]42 [Compound S75] | 10.7 |
| CC[C@@]12C=C(C(=O)OCCC(=O)OCCOCCOCCOCCOCCOCCO)n3c4c(c5ccccc53)CCN(CCC1)[C@H]42 [Compound S60] | 12 |
| CC[C@@]12C=C(C(=O)NCC(=O)N[C@@H](CC(C)C)C(=O)O)n3c4c(c5ccccc53)CCN(CCC1)[C@H]42 [Compound S79] | 10.6 |
| CC[C@@]12C=C(C(=O)N[C@@H](CC(C)C)C(=O)OCCOCCOCCOCCOC)n3c4c(c5ccccc53)CCN(CCC1)[C@H]42 [Compound S13] | 11.6 |
| CC[C@@]12C=C(C(=O)OCCC(=O)OCCOCCOCCOCCO)n3c4c(c5ccccc53)CCN(CCC1)[C@H]42 [Compound S58] | 11.4 |
| CC[C@@]12C=C(C(=O)N[C@@H](CO)C(=O)OCCOCCOCCOCCOC)n3c4c(c5ccccc53)CCN(CCC1)[C@H]42 [Compound S15] | 11.3 |
| CC[C@@]12C=C(C(=O)N[C@@H](CN)C(=O)O)n3c4c(c5ccccc53)CCN(CCC1)[C@H]42 [Compound S72] | 11.3 |
| CC[C@@]12C=C(C(=O)NCC(=O)N[C@@H](CC(N)=O)C(=O)OCCOCCOCCOCCO)n3c4c(c5ccccc53)CCN(CCC1)[C@H]42 [Compound S49] | 12 |
| CC[C@@]12C=C(C(=O)N[C@@H](CC(=O)O)C(=O)OCCOCCOCCOCCO)n3c4c(c5ccccc53)CCN(CCC1)[C@H]42 [Compound S42] | 10.3 |
| CC[C@@]12C=C(C(=O)N[C@@H](Cc3ccc(O)cc3)C(=O)OCCOCCOCCOCCO)n3c4c(c5ccccc53)CCN(CCC1)[C@H]42 [Compound S44] | 9.9 |
| CC[C@@]12C=C(C(=O)NCC(=O)N[C@@H](CO)C(=O)OCCOCCOCCOCCO)n3c4c(c5ccccc53)CCN(CCC1)[C@H]42 [Compound S48] | 11.4 |
| CC[C@@]12C=C(C(=O)OCCC(=O)OCCOCCOCCOCCOCCO)n3c4c(c5ccccc53)CCN(CCC1)[C@H]42 [Compound S59] | 10.6 |
| CC[C@@]12C=C(C(=O)N[C@@H](CCCCN)C(=O)OCCOCCOCCOCCO)n3c4c(c5ccccc53)CCN(CCC1)[C@H]42 [Compound S40] | 11.4 |
| CC[C@@]12C=C(C(=O)NCC(=O)OC)n3c4c(c5ccccc53)CCN(CCC1)[C@H]42 [Compound S83] | 12.7 |
| CC[C@]12CCCN3CCc4c(n(c5ccccc45)[C@@](O)(C(=O)OC)C1)[C@@H]32 [Vincamine, reference compound] | 9.5 |
| CC[C@@]12C=C(C(=O)N[C@@H](Cc3c[nH]cn3)C(=O)OCCOCCOCCOCCO)n3c4c(c5ccccc53)CCN(CCC1)[C@H]42 [Compound S45] | 10.5 |
